Test in all cases: NCI anticancer screen, dose series, 48 h
Assay [1] concerns COLO 205 colon.
In assay [2] the test system is ACHN renal.
The subject of assay [3] is NCI/ADR-RES ovarian.
For assay [4], the system named is OVCAR-5 ovarian.
For assay [5], the system named is SK-MEL-5 melanoma.
In assay [6] the test system is SK-OV-3 ovarian.
Assay [7] has as its system UACC-62 melanoma.

Values joined by “and” are separate entries in the source; they are usually repeats but may differ in a detail not shown here. Identical values can stand only once.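 How tested: cells in 96-well plates exposed to compound for 48 hours at five concentrations. The concentration for 50% growth inhibition is given as GI50. TGI marks complete inhibition of growth.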

Take `O=C1NC2C(CC(O)C(O)C2O)c2cc3c(c(O)c21)OCO3` (centres undefined): in assay [1], the GI50 was 25.5 nM and < 10 nM; the TGI was 127 nM and 15.6 nM.

Turning to `Cc1cc2c(cc1C)[n+](Cc1ccc3ccccc3c1)cn2Cc1ccc2ccccc2c1`, the GI50 in assay [2] was 1650 nM; in assay [3] it was 6600 nM; in assay [4], 1130 nM; in assay [5], 1050 nM; in assay [6], 1500 nM; in assay [7], 459 nM. The TGI in assay [2] stood at 3080 nM; in assay [3] it was 64400 nM; in assay [4], 2430 nM; in assay [5] it was 2230 nM; in assay [6], 2900 nM; in assay [7], 1790 nM.

For the origin of these results see PubChem BioAssay (NCI).
